Data reported in US7576088B2, “Benzodioxole derivatives” (Hoffman-La Roche Inc., priority 2002, dated 2009).

Target: T1, human cannabis CB1 receptor (Homo sapiens, UniProt P21554)
T1 construct: expressed in transfected cells; host or cells: human embryonic kidney (HEK) cells, Semliki Forest Virus system
Test: Affinity for cannabinoid CB1 receptors, [3H]-CP-55,940 radioligand binding on HEK cell membranes
Conditions: not given
Method: The affinity of the compounds of the invention for cannabinoid CB1 receptors was determined using membrane preparations of human embryonic kidney (HEK) cells in which the human cannabis CB1 receptor is transiently transfected using the Semliki Forest Virus system in conjunction with [3H]-CP-55,940 as radioligand. After incubation of a freshly prepared cell membrane preparation with the [3H]-ligand, with or without addition of compounds of the invention, separation of bound and free ligand was performed by filtration over glassfiber filters. Radioactivity on the filter was measured by liquid scintillation counting.

T1 sequence (P21554 whole entry): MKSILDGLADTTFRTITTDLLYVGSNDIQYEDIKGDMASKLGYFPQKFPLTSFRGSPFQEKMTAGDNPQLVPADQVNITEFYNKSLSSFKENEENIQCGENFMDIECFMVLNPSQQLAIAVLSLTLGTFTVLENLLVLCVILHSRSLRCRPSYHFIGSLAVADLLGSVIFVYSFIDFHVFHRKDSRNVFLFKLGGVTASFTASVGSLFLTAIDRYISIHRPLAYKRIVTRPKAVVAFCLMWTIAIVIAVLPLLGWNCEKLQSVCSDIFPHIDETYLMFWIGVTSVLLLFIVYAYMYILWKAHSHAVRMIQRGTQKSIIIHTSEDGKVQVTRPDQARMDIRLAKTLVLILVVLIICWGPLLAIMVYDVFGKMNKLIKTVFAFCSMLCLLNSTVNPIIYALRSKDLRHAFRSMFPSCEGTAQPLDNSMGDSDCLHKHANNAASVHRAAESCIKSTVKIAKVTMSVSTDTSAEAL

With `O=C(c1ccc2c(c1)OC(c1ccccc1)(c1ccccc1)O2)N1CCC2(CC1)OCCO2` [Example 46, (1,4-dioxa-8-aza-spiro[4.5]dec-8-yl)-(2,2-diphenyl-benzo[1,3]dioxol-5-yl)-methanone] as the compound, how does the IC50 read?
The IC50 was less than 2000 nM.

Same assay, conditions: affinity for the CB1 receptor; read-out: IC50

With `O=C(c1cc2c(cc1F)OC(c1ccc(F)cc1)(c1ccc(Cl)cc1Cl)O2)N1CCOCC1` (stereo not drawn) [Example 108, [2-(2,4-dichloro-phenyl)-6-fluoro-2-(4-fluoro-phenyl)-benzo[1,3]dioxol-5-yl]-morpholin-4-yl-methanone] as the compound, how does the IC50 read?
Its IC50 is less than 2000 nM.

With `O=C(c1cc2c(cc1F)OC(c1ccccc1F)(c1ccccc1F)O2)N1CC[C@H](O)C1` [Example 271] as the compound, how does the IC50 read?
The IC50 was less than 2000 nM.

For `O=C(c1cc2c(cc1F)OC(c1ccc(F)cc1)(c1ccc(F)cc1)O2)N1CCCC1` [Example 164, [6-fluoro-2,2-bis-(4-fluoro-phenyl)-benzo[1,3]dioxol-5-yl]-pyrrolidin-1-yl-methanone], which IC50 is on record?
Its IC50 is less than 2000 nM.

Which IC50 does the source give for `O=S(=O)(c1ccc2c(c1)OC(c1ccccc1)(c1ccccc1)O2)N1CCc2ccccc2C1` [Example 18, 2-(2,2-diphenyl-benzo[1,3]dioxole-5-sulfonyl)-1,2,3,4-tetrahydro-isoquinoline] here?
The IC50 was less than 2000 nM.

For `O=S(=O)(c1ccc2c(c1)OC(c1ccccc1)(c1ccccc1)O2)N1CCCN(c2ncc(C(F)(F)F)cc2Cl)CC1` [Example 22, 1-(3-chloro-5-trifluoromethyl-pyridin-2-yl)-4-(2,2-diphenyl-benzo[1,3]dioxole-5-sulfonyl)-[1,4]diazepane], which IC50 is on record?
Its IC50 is less than 2000 nM.

For `Fc1ccc(C2=CCN(Cc3ccc4c(c3)OC(c3ccccc3)(c3ccccc3)O4)CC2)cc1` [Example 75, 1-(2,2-diphenyl-benzo[1,3]dioxol-5-yl-methyl)-4-(4-fluoro-phenyl)-1,2,3,6-tetrahydro-pyridine], which IC50 is on record?
The IC50 was less than 2000 nM.

For `O=C(c1ccc2c(c1F)OC(c1ccccc1)(c1ccccc1)O2)N1CCOCC1` [Example 65, (4-fluoro-2,2-diphenyl-benzo[1,3]dioxol-5-yl)-morpholin-4-yl-methanone], which IC50 is on record?
Its IC50 is less than 2000 nM.

With `O=S(=O)(c1ccc2c(c1)OC(c1ccccc1)(c1ccccc1)O2)N1CCN(c2ccc(Cl)cc2Cl)CC1` [Example 4, 1-(2,4-dichloro-phenyl)-4-(2,2-diphenyl-benzo[1,3]dioxole-5-sulfonyl)-piperazine] as the compound, how does the IC50 read?
The IC50 was less than 2000 nM.

Which IC50 does the source give for `O=S(=O)(c1cc2c(cc1F)OC1(O2)c2ccccc2CCc2ccccc21)N1CCOCC1` [Example 234] here?
The IC50 was less than 2000 nM.

Which IC50 does the source give for `O=S(=O)(c1ccc2c(c1)OC(c1ccc(F)cc1)(c1ccc(Cl)cc1Cl)O2)N1CCCCC1` (racemic) [Example 39, 1-[2-(2,4-dichloro-phenyl)-2-(4-fluoro-phenyl)-benzo[1,3]dioxole-5-sulfonyl]-piperidine] here?
The IC50 was less than 2000 nM.

With `O=S(=O)(NCc1ccccc1)c1ccc2c(c1)OC(c1ccccc1)(c1ccccc1)O2` [Example 20, 2,2-diphenyl-benzo[1,3]dioxole-5-sulfonic acid benzylamide] as the compound, how does the IC50 read?
Its IC50 is less than 2000 nM.

System: not given
Test: not given
Conditions: not given

With `O=C(c1ccc2c(c1)OC(c1cccc(Cl)c1)(c1cccc(Cl)c1)O2)N1CCCCC1` as the compound, how does the melting point read?
The melting point was 54 °C.

Which melting point does the source give for `O=C(c1cc2c(cc1F)OC(c1ccccc1Cl)(c1ccccc1Cl)O2)N1CCOCC1` here?
The melting point was 98 °C.

System: not given
Test: not given
Conditions: doses of 5, 10 and 20 mg daily; cited from earlier work

For `Cc1c(C(=O)NN2CCCCC2)nn(-c2ccc(Cl)cc2Cl)c1-c1ccc(Cl)cc1` [SR 141716, Rimonabant], which “body weight compared to placebo” value is on record?
The value was “significantly reduced body weight”.
